Assay results as given in ChEMBL document CHEMBL4346704, “Novel symmetric bis-benzimidazoles: Synthesis, DNA/RNA binding and antitrypanosomal activity” (Eur J Med Chem, 2019).
Activity calls are given as the source filed them. The rule behind the calls is not given here.

Assays:
Calf thymus DNA [1] = test: Binding affinity to calf thymus DNA assessed as conformational change by circular dichroism analysis; format: nucleic-acid assay; conditions: Bos taurus
Calf thymus DNA [2] = test: Binding affinity to calf thymus DNA assessed as change in melting temperature at compound to calf thymus DNA polynucleotide ratio of 0.3 by spectrophotometric analysis; format: nucleic-acid assay; conditions: Bos taurus
[3] = test system: Poly(dA-dU)oligonucleotide; test: Binding affinity to polyA-polyU dsRNA (unknown origin) assessed as change in melting temperature at 0.3 ratio of compound to RNA by spectrophotometric analysis; format: nucleic-acid assay
[4] = (§1) Binding affinity to polyA-polyU dsRNA (unknown origin) assessed as binding constant by UV-vis spectrophotometric method; format: nucleic-acid assay
Trypanosoma brucei = test: Antitrypanosomal activity against Trypanosoma brucei 221 incubated for 48 hrs by resazurin based fluorescence assay; format: functional, organism-based; conditions: Trypanosoma brucei, 221, 48 h
Calf thymus DNA [5] = test: Binding affinity to calf thymus DNA by UV-vis spectrophotometric method; format: nucleic-acid assay; conditions: Bos taurus
Calf thymus DNA [6] = test: Binding affinity to calf thymus DNA assessed as hypochromic effect by UV-vis spectrophotometric method relative to control; format: nucleic-acid assay; design: concentration or dose not given beside the values; conditions: Bos taurus
Calf thymus DNA [7] = test: Ratio of compound concentration to polynucleotide phosphate concentration for binding affinity to calf thymus DNA; format: nucleic-acid assay; conditions: Bos taurus
[8] = Binding affinity to polyA-polyU dsRNA (unknown origin) assessed as hypochromic effect by UV-vis spectrophotometric method relative to control; format: nucleic-acid assay; design: concentration or dose not given beside the values
Calf thymus DNA [9] = test: Binding affinity to calf thymus DNA assessed as change in melting temperature at compound to calf thymus DNA polynucleotide ratio of 0.5 by spectrophotometric analysis; format: nucleic-acid assay; conditions: Bos taurus
Calf thymus DNA [10] = test: Binding affinity to calf thymus DNA assessed as change in melting temperature at compound to calf thymus DNA polynucleotide ratio of 0.1 by spectrophotometric analysis; format: nucleic-acid assay; conditions: Bos taurus
[11] = test system: Poly(dA-dU)oligonucleotide; test: Binding affinity to polyA-polyU dsRNA (unknown origin) assessed as change in melting temperature at 0.5 ratio of compound to RNA by spectrophotometric analysis; format: nucleic-acid assay
L6 = test: Cytotoxicity against rat L6 cells incubated for 6 days by resazurin based fluorescence assay; format: cell-based; conditions: L6, 144 h
[12] = Binding affinity to polyA-polyU dsRNA (unknown origin) assessed as change in melting temperature at 0.1 ratio of compound to RNA by spectrophotometric analysis; format: nucleic-acid assay
[13] = test system: Poly(dA-dU)oligonucleotide; test: Binding affinity to polyA-polyU dsRNA (unknown origin) assessed as conformational change by circular dichroism analysis; format: nucleic-acid assay
[14] = test system: Poly(dA-dU)oligonucleotide; test: as §1; format: nucleic-acid assay
[15] = Ratio of compound concentration to polynucleotide phosphate concentration for binding affinity to polyA-polyU dsRNA (unknown origin); format: nucleic-acid assay

SMILES | Activity (Calf thymus DNA [1]) | ΔTm (Calf thymus DNA [2]) [°C] | ΔTm [3] [°C] | Activity [4] | IC50 (Trypanosoma brucei) [µM] | log Ks (Calf thymus DNA [5]) | Activity (Calf thymus DNA [6]) [%] | Ratio (Calf thymus DNA [7]) | Activity [8] [%] | ΔTm (Calf thymus DNA [9]) [°C] | ΔTm (Calf thymus DNA [10]) [°C] | ΔTm [11] [°C] | IC50 (L6) [µM] | ΔTm [12] [°C] | IC90 (Trypanosoma brucei) [µM] | Activity (Calf thymus DNA [5]) | Activity [13] | log Ks [14] | Ratio [15]
Fc1ccc2[nH]c(-c3ccc(Cn4cc(COc5ccc(-c6ccc(OCc7cn(Cc8ccc(-c9nc%10cc(F)ccc%10[nH]9)o8)nn7)cc6)cc5)nn4)o3)nc2c1 | inactive | 0 | 0 | Active | > 15 | 4 to 5 | 16 | 0.21 | 23 | – | – | – | – | – | – | – | – | – | –
CC(C)NC(=N)c1ccc2[nH]c(-c3ccc(Cn4cc(COc5ccc(OCc6cn(Cc7ccc(-c8nc9cc(C(=N)NC(C)C)ccc9[nH]8)o7)nn6)cc5)nn4)o3)nc2c1.Cl.Cl | Active | 11 | 0 | Active | 1.5 | – | 23 | – | 11 | 12.2 | 8 | 0 | 121 | 0 | 2.8 | Active | Active | – | –
Cl.Cl.c1cc(OCc2cn(Cc3ccc(-c4nc5cc(C6=NCCN6)ccc5[nH]4)o3)nn2)ccc1OCc1cn(Cc2ccc(-c3nc4cc(C5=NCCN5)ccc4[nH]3)o2)nn1 | Active | 8.9 | 2.2 | Active | 0.75 | – | 6 | – | 11 | 0 | 8.2 | 0 | 60.7 | 2.7 | 1.5 | Active | Active | – | –
Cl.Cl.N=C(N)c1ccc2[nH]c(-c3ccc(Cn4cc(COc5ccc(OCc6cn(Cc7ccc(-c8nc9cc(C(=N)N)ccc9[nH]8)o7)nn6)cc5)nn4)o3)nc2c1 | Active | 10.7 | 0 | Active | 1.3 | – | 9 | – | 7 | 12.3 | 9.5 | 0 | 39.6 | 0 | 5.6 | Active | Active | – | –
Cl.Cl.c1cc2[nH]c(-c3ccc(Cn4cc(CCCc5cn(Cc6ccc(-c7nc8cc(C9=NCCN9)ccc8[nH]7)o6)nn5)nn4)o3)nc2cc1C1=NCCN1 | Active | 13.8 | 1.8 | – | 3.9 | 7.62 | 17 | 0.05 | 32 | 19.1 | 13.5 | 2.7 | 216 | 1.6 | 5.4 | – | Active | 6.83 | 0.42
Cl.Cl.c1cc2[nH]c(-c3ccc(Cn4cc(COCc5cn(Cc6ccc(-c7nc8cc(C9=NCCN9)ccc8[nH]7)o6)nn5)nn4)o3)nc2cc1C1=NCCN1 | Active | 12.7 | 4 | – | 3.8 | 6.23 | 28 | 0.89 | 22 | 12.5 | 12.4 | – | 122 | 3.5 | 6 | – | Active | 7.17 | 0.85
